Data reported in patent publication US20100160454A1, “ANTIMICROBIAL AGENTS, COMPOSITIONS AND PRODUCTS CONTAINING THE SAME, AND METHODS OF USING THE COMPOSITIONS AND PRODUCTS” (Eastman Chemical Company, priority 2008, published 2010).

Key:
Type in all cases: cell-based
[1] = tested on: Microsporum canis (ATTC 9084); assay: Challenge testing against pathogenic fungi, growth rating in broth tubes; parameters: key: 0: No visible growth; 1: Some growth in tube; 2: Moderate growth in tube; 3: Good growth in tube; 4: Extreme growth in tube
In short: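 Fungi grown in Sabouraud dextrose broth (M. furfur with 2% olive oil/0.2% Tween 80), 22±2 °C; tubes of 1,4-CHDM-D90 dilutions inoculated, static incubation, subcultured at 3, 14, 30 days, triplicate. Growth rated 0–4: visually (M. canis), INT redox dye (T. rubrum), pellicle formation (M. furfur); 30-day MIC.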

[2] = tested on: Escherichia coli ATCC 25922; assay: Microbiological challenge testing in BPW broth, graded subculture counts; conditions: E. Coli
Description: (§1) The microorganisms in the table below were used in challenge tests. They were either ATCC (American Type Culture Collection) or “wild type” as indicated. Wild type organisms were problematic organisms previously isolated from chemical products.
(§2) All of the microorganisms were grown in Tryptose Soy Broth (TSB), DIFCO™ available from Becton, Dickinson and Company, containing 1% dextrose. Candida albicans and Aspergillus niger, were incubated at 22° C.+/−2° C. for at least 96 hours. All bacteria were incubated at 35° C.+/−2° C. in a humidified incubator for at least 96 hours.
(§3) The following procedure was followed to determine the amount of each challenge material (inoculum broth) needed to produce a 10^8 CFU/mL challenge, which is equivalent to a final test-sample microbial concentration of 10^5 to 10^6 CFU/mL (CFU=colony forming units).
(§4) Using a sterile pipette, 1 mL of the growth from each TSB culture was transferred into tubes of 9 mL buffered water (pH 7.2 phosphate buffer) and mixed thoroughly. This was repeated to make serial 1:10 dilutions. Then, 0.1 mL of each sample and dilution was inoculated onto agar plates to produce the equivalent of a further 1:10 dilution. (C. albicans and A. niger were inoculated onto SABD and bacteria were inoculated onto Plate Count Agar (PCA), DIFCO™ available from Becton, Dickinson and Company.) (The normal volume plated for most samples was 0.1 mL. Some samples that could be very low in micro-organisms (high dilutions) were plated using 0.5 mL of inoculum, in order to produce reproducible counts.) The samples were distributed on the plates using the spread-plate technique. The spread-plate technique is carried out by spreading the sample over the entire plate surface using a sterile spreading rod while rotating the plate with a rotary auto-plater. After the inoculum was absorbed completely by the agar, each plate was inverted and incubated (fungi at 22° C.+/−2° C. and bacteria at 35° C.+/−2° C.).
(§5) After incubation for at least 48 hours, colonies that had developed on the agar plates were counted (CFU) and recorded with the corresponding dilution. If counting had to be delayed temporarily, plates were refrigerated, preferably no more than 24 hours, until they could be counted. The number of CFU/mL was determined by multiplying the plate count by the dilution factor of the plate counted.
(§6) Turbidity in Nepholemetric Turbidity Units (NTU) was measured for each serial dilution using the HF-Micro 100 Model Turbidimeter. For each microorganism, the plate counts were compared to the turbidity readings.
(§7) Control substrates (“broth alone”) were prepared for each microorganism separately in triplicate by adding 13.5 mL of Buffered Peptone Water broth (BPW) containing 1% dextrose to each 20-mL glass tube, then adding 1.5 mL challenge material to produce a final concentration at time zero of 10^5 to 10^6 CFU/mL and a total volume of 15 mL.
(§8) Test sample substrates were prepared containing each test material listed below at the concentrations shown for challenge testing with each microorganism separately. Sample substrates were prepared in triplicate, except the substrates containing butoxyethanol which were prepared in duplicate. Substrates were prepared by adding BPW containing 1% dextrose to each 20-mL glass tube, then adding the test material in the amount appropriate to achieve the desired weight/volume percent and to achieve a total volume of BPW plus dextrose plus test material of 13.5 mL. Then 1.5 mL challenge material was added to produce a final concentration at time zero of 10^5 to 10^6 CFU/mL and a total test sample substrate volume of 15 mL.

[3] = tested on: Proteus vulgaris Wild type; assay: as above
Description: as §1, §2, §3, §4, §5, §6, §7, §8

[4] = tested on: Pseudomonas aeruginosa Wild type; assay: as above; conditions: P. aeruginosa
Description: as §1, §2, §3, §4, §5, §6, §7, §8

OCC1CCC(CO)CC1 (stereo not drawn) [1,4-CHDM, 1,4-cyclohexanedimethanol]
M. canis growth rating, 3 day ([1]; 0.5% weight/volume): 2 | M. canis growth rating, 14 day ([1]; 0.5% weight/volume): 1 | M. canis growth rating, 30 day ([1]; 0.5% weight/volume): 1 | M. canis growth rating, 3 day ([1]; 1.25% weight/volume): 2 | M. canis growth rating, 14 day ([1]; 1.25% weight/volume): 1 | M. canis growth rating, 30 day ([1]; 1.25% weight/volume): 1 | M. canis growth rating, 3 day ([1]; 2.5% weight/volume): 2 | M. canis growth rating, 14 day ([1]; 2.5% weight/volume): 0 | M. canis growth rating, 30 day ([1]; 2.5% weight/volume): 0 | M. canis growth rating, 3 day ([1]; 5.0% weight/volume): 0 | M. canis growth rating, 14 day ([1]; 5.0% weight/volume): 0 | M. canis growth rating, 30 day ([1]; 5.0% weight/volume): 0 | Grade ([2]; 0.5% (wt/vol), 3 day): 5 (More than 10,000 colonies estimated (thus more than 100,000 CFU/mL)) | Grade ([2]; 0.5% (wt/vol), 14 day): 4 (1000 to 10,000 colonies countable (thus 10,000 CFU/mL to 100,000 CFU/mL)) | Grade ([2]; 0.5% (wt/vol), 30 day): 4 (1000 to 10,000 colonies countable (thus 10,000 CFU/mL to 100,000 CFU/mL)) | Grade ([2]; 1.25% (wt/vol), 3 day): 4 (1000 to 10,000 colonies countable (thus 10,000 CFU/mL to 100,000 CFU/mL)) | Grade ([2]; 1.25% (wt/vol), 14 day): 4 (1000 to 10,000 colonies countable (thus 10,000 CFU/mL to 100,000 CFU/mL)) | Grade ([2]; 1.25% (wt/vol), 30 day): 4 (1000 to 10,000 colonies countable (thus 10,000 CFU/mL to 100,000 CFU/mL)) | Grade ([2]; 2.5% (wt/vol), 3 day): 3 (100 to 1000 colonies (thus 1000 to 10,000 CFU/mL)) | Grade ([2]; 2.5% (wt/vol), 14 day): 2 (52 to 100 colonies counted (thus 520 to 1000 CFU/mL)) | Grade ([2]; 2.5% (wt/vol), 30 day): 0 | Grade ([2]; 5.0% (wt/vol), 3 day): 0 | Grade ([2]; 5.0% (wt/vol), 14 day): 0 | Grade ([2]; 5.0% (wt/vol), 30 day): 0 | P. vulgaris growth grade, 3 day ([3]; 0.5% weight/volume): 4 (1000 to 10,000 colonies countable (thus 10,000 CFU/mL to 100,000 CFU/mL)) | P. vulgaris growth grade, 13 day ([3]; 0.5% weight/volume): 4 (1000 to 10,000 colonies countable (thus 10,000 CFU/mL to 100,000 CFU/mL)) | P. vulgaris growth grade, 30 day ([3]; 0.5% weight/volume): 4 (1000 to 10,000 colonies countable (thus 10,000 CFU/mL to 100,000 CFU/mL)) | P. vulgaris growth grade, 3 day ([3]; 1.25% weight/volume): 3 (100 to 1000 colonies (thus 1000 to 10,000 CFU/mL)) | P. vulgaris growth grade, 13 day ([3]; 1.25% weight/volume): 2 (52 to 100 colonies counted (thus 520 to 1000 CFU/mL)) | P. vulgaris growth grade, 30 day ([3]; 1.25% weight/volume): 0 | P. vulgaris growth grade, 3 day ([3]; 2.5% weight/volume): 1 (0 to 51 colonies counted (thus 10 to 510 CFU/mL based on 0.1-mL sample)) | P. vulgaris growth grade, 13 day ([3]; 2.5% weight/volume): 0 | P. vulgaris growth grade, 30 day ([3]; 2.5% weight/volume): 0 | P. vulgaris growth grade, 3 day ([3]; 5.0% weight/volume): 0 | P. vulgaris growth grade, 13 day ([3]; 5.0% weight/volume): 0 | P. vulgaris growth grade, 30 day ([3]; 5.0% weight/volume): 0 | Grade ([4]; 0.5% (wt/vol), 3 day): 4 (1000 to 10,000 colonies countable (thus 10,000 CFU/mL to 100,000 CFU/mL)) | Grade ([4]; 0.5% (wt/vol), 13 day): 4 (1000 to 10,000 colonies countable (thus 10,000 CFU/mL to 100,000 CFU/mL)) | Grade ([4]; 0.5% (wt/vol), 30 day): 4 (1000 to 10,000 colonies countable (thus 10,000 CFU/mL to 100,000 CFU/mL)) | Grade ([4]; 1.25% (wt/vol), 3 day): 4 (1000 to 10,000 colonies countable (thus 10,000 CFU/mL to 100,000 CFU/mL)) | Grade ([4]; 1.25% (wt/vol), 13 day): 3 (100 to 1000 colonies (thus 1000 to 10,000 CFU/mL)) | Grade ([4]; 1.25% (wt/vol), 30 day): 4 (1000 to 10,000 colonies countable (thus 10,000 CFU/mL to 100,000 CFU/mL)) | Grade ([4]; 2.5% (wt/vol), 3 day): 3 (100 to 1000 colonies (thus 1000 to 10,000 CFU/mL)) | Grade ([4]; 2.5% (wt/vol), 13 day): 2 (52 to 100 colonies counted (thus 520 to 1000 CFU/mL)) | Grade ([4]; 2.5% (wt/vol), 30 day): 0 | Grade ([4]; 5.0% (wt/vol), 3 day): 0 | Grade ([4]; 5.0% (wt/vol), 13 day): 0 | Grade ([4]; 5.0% (wt/vol), 30 day): 0
